The source of these data is US20250353891A1 (MEDIMMUNE LIMITED, priority 2022, published 2025).

“And” between values parts separate entries of the source, which are not always exact repeats. Equal values may be shown once. Starred links: 1 amine or outer side, 2 acyl side, 3 side chain; linkers in the order of their positions; H or OH if unused. Non-standard residues stand in square brackets, D forms with d. Residues, ends and D or L forms follow the SMILES beside them. Groups on a side chain read outwards from the residue. *: point of attachment. C20 diacid = O=C(O)CCCCCCCCCCCCCCCCCCC(=O)*; C18 diacid = O=C(O)CCCCCCCCCCCCCCCCC(=O)*; γGlu = O=C(O)[C@H](CCC(=O)[*:2])N[*:1]; αMeF = C[C@](N)(Cc1ccccc1)C(=O)O; AEEA = NCCOCCOCC(=O)O; Aib = CC(C)(N)C(=O)O

Assay [1] addresses human GLP-1 receptor (hGLP-1R) (Homo sapiens, UniProt P43220). The assay is described as follows: cAMP production (HTRF) in CHO cells expressing hGLP-1R. Format: cell-based. More on the design: expressed in transfected cells. The settings on record: for EC50: Table 6, peptides modified at position 17, cAMP in CHO hGLP-1R cells, geometric mean, read-out: hGLP-1R EC50; for % Relative Potency Ratio: Table 6, % GLP-1R activity relative to GLP-1 / % GlucR activity relative to glucagon. A digest of the protocol: (§1)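 Potency values represent EC50 from 4-parameter logistic curves of HTRF % Delta F signal. Receptor-expressing CHO cells (hGCGR 2×10^5 cells/mL, hGLP-1R 1×10^5 cells/mL) were exposed for 30 min at room temperature before two-step cAMP detection.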
For orientation: Changes in cAMP serve as a functional read-out for many G protein-coupled receptors.

The target in assay [2] is human glucagon receptor (hGCGR) (Homo sapiens, UniProt P47871). The assay is described as follows: cAMP production (HTRF) in CHO cells expressing hGCGR. It counts as cell-based. More on the design: expressed in transfected cells. The note with it: Table 6, peptides modified at position 17; cAMP in CHO hGCGR cells; geometric mean; read-out: hGluc-R EC50. A digest of the protocol:
as §1

Sequence of human glucagon receptor (hGCGR) (P47871 26-477): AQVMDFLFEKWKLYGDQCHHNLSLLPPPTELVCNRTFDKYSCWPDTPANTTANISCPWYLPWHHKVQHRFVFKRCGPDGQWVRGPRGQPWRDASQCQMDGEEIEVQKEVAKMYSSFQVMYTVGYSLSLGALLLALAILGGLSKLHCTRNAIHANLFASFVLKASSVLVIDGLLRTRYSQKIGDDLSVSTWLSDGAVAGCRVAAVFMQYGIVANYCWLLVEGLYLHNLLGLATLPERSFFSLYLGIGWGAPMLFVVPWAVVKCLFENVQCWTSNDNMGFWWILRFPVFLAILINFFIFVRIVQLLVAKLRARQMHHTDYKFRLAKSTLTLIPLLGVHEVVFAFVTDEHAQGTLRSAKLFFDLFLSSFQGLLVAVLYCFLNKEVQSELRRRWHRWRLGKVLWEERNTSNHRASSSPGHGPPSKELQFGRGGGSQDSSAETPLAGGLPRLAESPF
Sequence of human GLP-1 receptor (hGLP-1R) (P43220 24-463): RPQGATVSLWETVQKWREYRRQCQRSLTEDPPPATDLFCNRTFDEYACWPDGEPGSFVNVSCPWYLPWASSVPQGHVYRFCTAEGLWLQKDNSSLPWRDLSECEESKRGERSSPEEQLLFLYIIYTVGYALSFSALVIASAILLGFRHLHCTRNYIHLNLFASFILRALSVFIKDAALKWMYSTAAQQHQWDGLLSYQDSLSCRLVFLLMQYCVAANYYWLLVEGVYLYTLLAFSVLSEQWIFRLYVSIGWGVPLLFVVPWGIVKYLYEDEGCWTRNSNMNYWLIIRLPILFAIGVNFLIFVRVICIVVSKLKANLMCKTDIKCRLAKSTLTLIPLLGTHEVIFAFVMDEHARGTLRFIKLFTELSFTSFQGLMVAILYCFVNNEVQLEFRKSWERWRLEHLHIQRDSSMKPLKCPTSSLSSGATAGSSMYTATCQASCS

For `CC(C)C[C@H](NC(=O)[C@H](Cc1c[nH]c2ccccc12)NC(=O)[C@H](CCCNC(=N)N)NC(=O)[C@@H](NC(=O)[C@H](Cc1ccccc1)NC(=O)[C@H](CC(=O)O)NC(=O)[C@H](CCC(N)=O)NC(=O)[C@H](C)NC(=O)[C@H](CCCNC(=N)N)NC(=O)[C@H](CCCCNC(=O)COCCOCCNC(=O)COCCOCCNC(=O)CC[C@H](NC(=O)CCCCCCCCCCCCCCCCCCC(=O)O)C(=O)O)NC(=O)[C@H](CO)NC(=O)[C@H](CC(=O)O)NC(=O)[C@H](CC(C)C)NC(=O)[C@](C)(Cc1ccccc1)NC(=O)[C@H](CCCCN)NC(=O)[C@H](CO)NC(=O)[C@@H](NC(=O)[C@H](CC(=O)O)NC(=O)[C@H](CO)NC(=O)[C@@H](NC(=O)[C@H](Cc1ccccc1)NC(=O)[C@@H](NC(=O)CNC(=O)[C@H](CCC(N)=O)NC(=O)C(C)(C)NC(=O)[C@@H](N)Cc1c[nH]cn1)[C@@H](C)O)[C@@H](C)O)C(C)C)C(C)C)C(=O)N[C@@H](CC(C)C)C(=O)N[C@@H](CCC(=O)O)C(=O)NC(C)(C)C(=O)NCC(=O)O` [Peptide 158] (H-H[Aib]QGTFTSDVSK[αMeF]LDSK([AEEA-AEEA-γGlu-C20 diacid])RAQDFVRWLLE[Aib]G-OH; N-terminus assumed), the values for the EC50 in assay [1] and in assay [2] were 0.304 nM and 0.333 nM, respectively. Moreover, the “% Relative Potency Ratio” value in assay [1] is 2.2.

On to `CC(C)C[C@H](NC(=O)[C@H](Cc1c[nH]c2ccccc12)NC(=O)[C@H](CCCNC(=N)N)NC(=O)[C@@H](NC(=O)[C@H](Cc1ccccc1)NC(=O)[C@H](CC(=O)O)NC(=O)[C@H](CCC(N)=O)NC(=O)[C@H](C)NC(=O)[C@H](CCCNC(=N)N)NC(=O)[C@H](CCCCNC(=O)COCCOCCNC(=O)COCCOCCNC(=O)CC[C@H](NC(=O)CCCCCCCCCCCCCCCCCCC(=O)O)C(=O)O)NC(=O)[C@@H](NC(=O)[C@H](CC(=O)O)NC(=O)[C@H](CC(C)C)NC(=O)[C@](C)(Cc1ccccc1)NC(=O)[C@H](CCCCN)NC(=O)[C@H](CO)NC(=O)[C@@H](NC(=O)[C@H](CC(=O)O)NC(=O)[C@H](CO)NC(=O)[C@@H](NC(=O)[C@H](Cc1ccccc1)NC(=O)[C@@H](NC(=O)CNC(=O)[C@H](CCC(N)=O)NC(=O)C(C)(C)NC(=O)[C@@H](N)Cc1c[nH]cn1)[C@@H](C)O)[C@@H](C)O)C(C)C)[C@@H](C)O)C(C)C)C(=O)N[C@@H](CC(C)C)C(=O)N[C@@H](CCC(=O)O)C(=O)NC(C)(C)C(=O)NCC(=O)O` [Peptide 159], for which, in assay [1], the EC50 (commonly the concentration needed to bring the measured effect to its halfway point) came out at 0.145 nM and the “% Relative Potency Ratio” value was 2.0. For the same compound, the EC50 in assay [2] was 0.145 nM.

For the compound `CC(C)C[C@H](NC(=O)[C@H](Cc1c[nH]c2ccccc12)NC(=O)[C@H](CCCNC(=N)N)NC(=O)[C@@H](NC(=O)[C@H](Cc1ccccc1)NC(=O)[C@H](CC(=O)O)NC(=O)[C@H](CCC(N)=O)NC(=O)[C@H](C)NC(=O)[C@H](CCCNC(=N)N)NC(=O)[C@H](CCCCNC(=O)COCCOCCNC(=O)COCCOCCNC(=O)CC[C@H](NC(=O)CCCCCCCCCCCCCCCCC(=O)O)C(=O)O)NC(=O)[C@H](CO)NC(=O)[C@H](CCC(=O)O)NC(=O)[C@H](CC(C)C)NC(=O)[C@](C)(Cc1ccccc1)NC(=O)[C@H](CCCCN)NC(=O)[C@H](CO)NC(=O)[C@@H](NC(=O)[C@H](CC(=O)O)NC(=O)[C@H](CO)NC(=O)[C@@H](NC(=O)[C@H](Cc1ccccc1)NC(=O)[C@@H](NC(=O)CNC(=O)[C@H](CCC(N)=O)NC(=O)C(C)(C)NC(=O)[C@@H](N)Cc1c[nH]cn1)[C@@H](C)O)[C@@H](C)O)C(C)C)C(C)C)C(=O)N[C@@H](CC(C)C)C(=O)N[C@@H](CCC(=O)O)C(=O)NC(C)(C)C(=O)NCC(=O)O` [Peptide 160] (H-H[Aib]QGTFTSDVSK[αMeF]LESK([AEEA-AEEA-γGlu-C18 diacid])RAQDFVRWLLE[Aib]G-OH), in assay [1], the EC50 was 0.0552 nM and the “% Relative Potency Ratio” value is given as 14.9. Moreover, in assay [2], the EC50 is 0.417 nM.

Turning to `CC(C)C[C@H](NC(=O)[C@H](Cc1c[nH]c2ccccc12)NC(=O)[C@H](C)NC(=O)[C@@H](NC(=O)[C@H](Cc1ccccc1)NC(=O)[C@H](CC(=O)O)NC(=O)[C@H](CCCNC(=N)N)NC(=O)[C@H](C)NC(=O)[C@H](CCCNC(=N)N)NC(=O)[C@H](CCCCNC(=O)COCCOCCNC(=O)COCCOCCNC(=O)CC[C@H](NC(=O)CCCCCCCCCCCCCCCCC(=O)O)C(=O)O)NC(=O)[C@H](C)NC(=O)[C@H](CCC(=O)O)NC(=O)[C@H](CC(C)C)NC(=O)[C@](C)(Cc1ccccc1)NC(=O)[C@H](CCCCN)NC(=O)[C@H](CO)NC(=O)[C@@H](NC(=O)[C@H](CC(=O)O)NC(=O)[C@H](CO)NC(=O)[C@@H](NC(=O)[C@H](Cc1ccccc1)NC(=O)[C@@H](NC(=O)CNC(=O)[C@H](CCC(N)=O)NC(=O)C(C)(C)NC(=O)[C@@H](N)Cc1c[nH]cn1)[C@@H](C)O)[C@@H](C)O)C(C)C)C(C)C)C(=O)N[C@@H](CC(C)C)C(=O)N[C@@H](CCC(=O)O)C(=O)NC(C)(C)C(=O)NCC(=O)O` [Peptide 161] (H-H[Aib]QGTFTSDVSK[αMeF]LEAK([AEEA-AEEA-γGlu-C18 diacid])RARDFVAWLLE[Aib]G-OH), the EC50 was 0.0172 nM and 0.0509 nM in assay [1]; 0.188 nM and 1.03 nM in assay [2]. For the same compound, the “% Relative Potency Ratio” value in assay [1] is 21.6 and 40.0.

`CC[C@H](C)[C@H](NC(=O)[C@H](Cc1c[nH]c2ccccc12)NC(=O)[C@H](CCCNC(=N)N)NC(=O)[C@@H](NC(=O)[C@H](Cc1ccccc1)NC(=O)[C@H](CC(=O)O)NC(=O)[C@H](CCC(N)=O)NC(=O)[C@H](C)NC(=O)[C@H](CCCNC(=N)N)NC(=O)[C@H](CCCCNC(=O)COCCOCCNC(=O)COCCOCCNC(=O)CC[C@H](NC(=O)CCCCCCCCCCCCCCCCC(=O)O)C(=O)O)NC(=O)[C@H](CO)NC(=O)[C@H](CC(=O)O)NC(=O)[C@H](CC(C)C)NC(=O)[C@](C)(Cc1ccccc1)NC(=O)[C@H](CCCCN)NC(=O)[C@H](CO)NC(=O)[C@@H](NC(=O)[C@H](CC(=O)O)NC(=O)[C@H](CO)NC(=O)[C@@H](NC(=O)[C@H](Cc1ccccc1)NC(=O)[C@@H](NC(=O)CNC(=O)[C@H](CCC(N)=O)NC(=O)C(C)(C)NC(=O)[C@@H](N)Cc1c[nH]cn1)[C@@H](C)O)[C@@H](C)O)C(C)C)C(C)C)C(=O)N[C@@H](C)C(=O)NC(C)(C)C(=O)N[C@H](C(=O)N[C@@H](CCC(=O)O)C(=O)O)[C@@H](C)O` [Peptide 162] (H-H[Aib]QGTFTSDVSK[αMeF]LDSK([AEEA-AEEA-γGlu-C18 diacid])RAQDFVRWIA[Aib]TE-OH; N-terminus assumed): the values for the EC50 in assay [1] and in assay [2] were 0.0596 nM and 1.03 nM, respectively. For the same compound, in assay [1], the “% Relative Potency Ratio” value came to 34.1.

Take `CC(C)C[C@H](NC(=O)[C@H](Cc1c[nH]c2ccccc12)NC(=O)[C@H](CCCNC(=N)N)NC(=O)[C@@H](NC(=O)[C@H](Cc1ccccc1)NC(=O)[C@H](CC(=O)O)NC(=O)[C@H](CCC(N)=O)NC(=O)[C@H](C)NC(=O)[C@H](CCCNC(=N)N)NC(=O)[C@H](CCCCNC(=O)COCCOCCNC(=O)COCCOCCNC(=O)CC[C@H](NC(=O)CCCCCCCCCCCCCCCCC(=O)O)C(=O)O)NC(=O)[C@H](CO)NC(=O)[C@H](CC(=O)O)NC(=O)[C@H](CC(C)C)NC(=O)[C@](C)(Cc1ccccc1)NC(=O)[C@H](CCCCN)NC(=O)[C@H](CO)NC(=O)[C@@H](NC(=O)[C@H](CC(=O)O)NC(=O)[C@H](CO)NC(=O)[C@@H](NC(=O)[C@H](Cc1ccccc1)NC(=O)[C@@H](NC(=O)CNC(=O)[C@H](CCC(N)=O)NC(=O)C(C)(C)NC(=O)[C@@H](N)Cc1c[nH]cn1)[C@@H](C)O)[C@@H](C)O)C(C)C)C(C)C)C(=O)N[C@@H](CC(C)C)C(=O)N[C@@H](CCC(=O)O)C(=O)NC(C)(C)C(=O)N[C@@H](C)C(=O)O` [Peptide 163] (H-H[Aib]QGTFTSDVSK[αMeF]LDSK([AEEA-AEEA-γGlu-C18 diacid])RAQDFVRWLLE[Aib]A-OH; N-terminus assumed): in assay [1], the EC50 was 0.0902 nM and the “% Relative Potency Ratio” value amounted to 3.2. In addition, the EC50 in assay [2] was determined as 0.144 nM.

`CC(C)C[C@H](NC(=O)[C@H](Cc1c[nH]c2ccccc12)NC(=O)[C@H](CCCNC(=N)N)NC(=O)[C@@H](NC(=O)[C@H](Cc1ccccc1)NC(=O)[C@H](CC(=O)O)NC(=O)[C@H](CCC(N)=O)NC(=O)[C@H](C)NC(=O)[C@H](CCCNC(=N)N)NC(=O)[C@H](CCCCNC(=O)COCCOCCNC(=O)COCCOCCNC(=O)CC[C@H](NC(=O)CCCCCCCCCCCCCCCCC(=O)O)C(=O)O)NC(=O)[C@H](CO)NC(=O)[C@H](CC(=O)O)NC(=O)[C@H](CC(C)C)NC(=O)[C@](C)(Cc1ccccc1)NC(=O)[C@H](CCCCN)NC(=O)[C@H](CO)NC(=O)[C@@H](NC(=O)[C@H](CC(=O)O)NC(=O)[C@H](CO)NC(=O)[C@@H](NC(=O)[C@H](Cc1ccccc1)NC(=O)[C@@H](NC(=O)CNC(=O)[C@H](CCC(N)=O)NC(=O)C(C)(C)NC(=O)[C@@H](N)Cc1c[nH]cn1)[C@@H](C)O)[C@@H](C)O)C(C)C)C(C)C)C(=O)N[C@H](C(=O)NC(C)(C)C(=O)N[C@H](C(=O)N[C@@H](CCC(=O)O)C(=O)O)[C@@H](C)O)C(C)C` [Peptide 165] (H-H[Aib]QGTFTSDVSK[αMeF]LDSK([AEEA-AEEA-γGlu-C18 diacid])RAQDFVRWLV[Aib]TE-OH; N-terminus assumed): the EC50 was determined as 0.0509 nM in assay [1] and 1.03 nM in assay [2]. The “% Relative Potency Ratio” value in assay [1] came to 40.0.
